# Like-named read-outs stand apart in the source and are kept apart here.
# Tests used:
# [1] = system: Aci. antitratus A-6; test: Antibacterial activity (MIC), agar dilution; format: cell-based; settings: Aci. antitratus A-6, 10^6 cells per ml, 37° C., 20 hours
# From the text: (§1) The amount of bacteria inoculated was 10^4 cells per plate (10^6 cells per ml).
# [2] = system: E. coli NIHJ JC-2; test: Antibacterial activity (MIC), agar dilution; format: cell-based; settings: E. coli NIHJ JC-2, 10^6 cells per ml, 37° C., 20 hours
# From the text: as §1
# [3] = system: E. coli TK-111; test: Antibacterial activity (MIC), agar dilution; format: cell-based; settings: E. coli TK-111, 10^6 cells per ml, 37° C., 20 hours
# From the text: as §1
# [4] = system: Ent. cloacae IID977; test: Antibacterial activity (MIC), agar dilution; format: cell-based; settings: Ent. cloacae IID977, 10^6 cells per ml, 37° C., 20 hours
# From the text: as §1
# [5] = system: Kl. pneumoniae Y-41; test: Antibacterial activity (MIC), agar dilution; format: cell-based; settings: 37° C., 20 hours
# From the text: as §1
# [6] = system: Kl. pneumoniae Y-50; test: Antibacterial activity (MIC), agar dilution; format: cell-based; settings: 10^6 cells per ml, 37° C.
# From the text: as §1
# [7] = system: Pro. mirabilis T-111; test: Antibacterial activity (MIC), agar dilution; format: cell-based; settings: 37° C.
# From the text: as §1
# [8] = system: Pro. morganii T-216; test: Antibacterial activity (MIC), agar dilution; format: cell-based; settings: 37° C.
# From the text: as §1
# [9] = system: Pro. vulgaris GN3027; test: Antibacterial activity (MIC), agar dilution; format: cell-based; settings: Pro. vulgaris GN3027, 10^6 cells per ml, 37° C., 20 hours
# From the text: as §1
# [10] = system: Ps. aeruginosa IFO3445; test: Antibacterial activity (MIC), agar dilution; format: cell-based; settings: Ps. aeruginosa IFO3445, 10^6 cells per ml, 37° C., 20 hours
# From the text: as §1
# [11] = system: Ps. aeruginosa S-68; test: Antibacterial activity (MIC), agar dilution; format: cell-based; settings: Ps. aeruginosa S-68, 10^6 cells per ml, 37° C., 20 hours
# From the text: as §1
# [12] = system: St. aureus FDA209P; test: Antibacterial activity (MIC), agar dilution; format: cell-based; settings: St. aureus FDA209P, 10^6 cells per ml, 37° C., 20 hours
# From the text: as §1
# [13] = system: E. coli TK-3*; test: Antibacterial activity (MIC), agar dilution; format: cell-based; settings: E. coli TK-3, penicillinase-producing, 10^6 cells per ml
# From the text: as §1
# (§2) * Penicillinase-producing bacteria
# [14] = system: Kl. pneumoniae Y-4*; test: Antibacterial activity (MIC), agar dilution; format: cell-based; settings: Kl. pneumoniae Y-4, penicillinase-producing, 10^6 cells per ml
# From the text: as §1, §2
# [15] = system: Ps. aeruginosa GN3379*; test: Antibacterial activity (MIC), agar dilution; format: cell-based; settings: Ps. aeruginosa GN3379, penicillinase-producing, 10^6 cells per ml
# From the text: as §1, §2
# [16] = system: St. aureus F-137*; test: Antibacterial activity (MIC), agar dilution; format: cell-based; settings: St. aureus F-137, penicillinase-producing, 10^6 cells per ml
# From the text: as §1, §2
# [17] = system: E. coli GN5482**; test: Antibacterial activity (MIC), agar dilution; format: cell-based; settings: E. coli GN5482, cephalospolinase-producing, 10^6 cells per ml
# From the text: as §1
# (§3) ** Cephalospolinase-producing bacteria
# [18] = system: Pro. vulgaris GN76**; test: Antibacterial activity (MIC), agar dilution; format: cell-based; settings: Pro. vulgaris GN76, cephalospolinase-producing, 10^6 cells per ml
# From the text: as §1, §3
# [19] = system: Ps. aeruginosa GN918**; test: Antibacterial activity (MIC), agar dilution; format: cell-based; settings: Pseudomonas aeruginosa, Ps. aeruginosa GN918, cephalospolinase-producing, 10^6 cells per ml
# From the text: as §1, §3
# [20] = Acute toxicity test (intravenous LD50); settings: mouse, in vivo, mice (ICR strain, male, 18-24 g)
# From the text: The LD50 values of the representative compounds of this invention when administered intravenously to mice (ICR strain, male, 18-24 g) are shown in Table 2.
# [21] = Morganella morganii, T216, 10^6 cells per ml, 20 hours, read-out: MIC
# [22] = Escherichia coli, NIHJJC2, 20 h, read-out: MIC
# [23] = Escherichia coli, TK111, 20 h, read-out: MIC
# [24] = Enterobacter cloacae, IID977, 20 h, read-out: MIC
# [25] = Klebsiella pneumoniae, Y41, 10^6 cells per ml, read-out: MIC
# [26] = Klebsiella pneumoniae, Y50, 20 h
# [27] = Proteus vulgaris, GN3027, 20 h, read-out: MIC
# [28] = Pseudomonas aeruginosa, read-out: MIC
# [29] = Pseudomonas aeruginosa, S68, read-out: MIC
# [30] = Staphylococcus aureus, FDA209P, 20 h, read-out: MIC
# [31] = Escherichia coli, 20 h, read-out: MIC
# [32] = Klebsiella pneumoniae, 20 h, read-out: MIC
# [33] = Pseudomonas aeruginosa, 20 h, read-out: MIC
# [34] = Staphylococcus aureus, 20 h, read-out: MIC
# [35] = Proteus vulgaris, 20 h, read-out: MIC
smiles,measurement,setting,value
CC(=O)Oc1ccc(-n2cc(C(=O)OCCN(C)C)c(=O)cc2-c2ccc(N(C)C)cc2)cc1 [drawing 38],MIC,[1],0.39 µg/mL
same,MIC,[2],0.39 µg/mL
same,MIC,[3],0.2 µg/mL
same,MIC,[4],1.56 µg/mL
same,MIC,[5]; 10^6 cells per ml,3.13 µg/mL
same,MIC,[6]; 20 hours,0.78 µg/mL
same,MIC,"[7]; 10^6 cells per ml, 20 hours",6.25 µg/mL
same,MIC,"[8]; 10^6 cells per ml, 20 hours",3.13 µg/mL
same,MIC,[9],0.39 µg/mL
same,MIC,[10],12.5 µg/mL
same,MIC,[11],6.25 µg/mL
same,MIC,[12],0.39 µg/mL
same,MIC,[13],1.56 µg/mL
same,MIC,[14],6.25 µg/mL
same,MIC,[15],12.5 µg/mL
same,MIC,[16],0.39 µg/mL
same,MIC,[17],≤ 0.05 µg/mL
same,MIC,[18],1.56 µg/mL
same,MIC,"[19]; GN918, 20 h",3.13 µg/mL
CC(=O)Oc1ccc(-n2cc(C(=O)OCCN(C)C)c(=O)cc2-c2ccc(N(C)C)cc2)cc1 [drawing 67],MIC,[1],0.2 µg/mL
same,MIC,[2],0.2 µg/mL
same,MIC,[3],0.1 µg/mL
same,MIC,[4],0.78 µg/mL
same,MIC,[5]; 10^6 cells per ml,3.13 µg/mL
same,MIC,[6]; 20 hours,0.39 µg/mL
same,MIC,"[7]; 10^6 cells per ml, 20 hours",3.13 µg/mL
same,MIC,[8]; [21],1.56 µg/mL
same,MIC,[9],0.2 µg/mL
same,MIC,[10],12.5 µg/mL
same,MIC,[11],6.25 µg/mL
same,MIC,[12],0.2 µg/mL
same,MIC,[13],0.78 µg/mL
same,MIC,[14],3.13 µg/mL
same,MIC,"[15]; Pseudomonas aeruginosa, GN3379, 20 h",6.25 µg/mL
same,MIC,[16],0.2 µg/mL
same,MIC,[17],≤ 0.05 µg/mL
same,MIC,[18],1.56 µg/mL
same,MIC,"[19]; 20 h, read-out: MIC",1.56 µg/mL
O=C(O)c1cn(-c2ccc(F)cc2)c(C=Cc2cccnc2)cc1=O [drawing 205],MIC,"[1]; 20 h, read-out: MIC",3.13 µg/mL
same,MIC,[2]; [22],1.56 µg/mL
same,MIC,[3]; [23],0.78 µg/mL
same,MIC,[4]; [24],3.13 µg/mL
same,MIC,[5]; [25],6.25 µg/mL
same,MIC,[6]; [26],0.78 µg/mL
same,MIC,"[7]; Proteus mirabilis, T111, 10^6 cells per ml, 20 hours, read-out: MIC",12.5 µg/mL
same,MIC,"[8]; Morganella morganii, T216, 20 h, 10^6 cells per ml",6.25 µg/mL
same,MIC,[9]; [27],0.39 µg/mL
same,MIC,[10]; [28],25 µg/mL
same,MIC,[11]; [29],12.5 µg/mL
same,MIC,[12]; [30],3.13 µg/mL
same,MIC,[13]; [31],3.13 µg/mL
same,MIC,[14]; [32],6.25 µg/mL
same,MIC,[15]; [33],25 µg/mL
same,MIC,[16]; [34],3.13 µg/mL
same,MIC,[17]; [31],0.2 µg/mL
same,MIC,[18]; [35],1.56 µg/mL
same,MIC,"[19]; 20 h, read-out: MIC",12.5 µg/mL
CN(C)c1ccc(-c2cc(=O)c(C(=O)O)cn2-c2ccc(O)cc2)cc1 [drawing 206],MIC,"[1]; 20 h, read-out: MIC",0.39 µg/mL
same,MIC,[2]; [22],0.2 µg/mL
same,MIC,[3]; [23],0.05 µg/mL
same,MIC,[4]; [24],0.39 µg/mL
same,MIC,[5]; [25],0.78 µg/mL
same,MIC,[6]; [26],0.2 µg/mL
same,MIC,"[7]; Proteus mirabilis, T111, 20 h, 10^6 cells per ml",1.56 µg/mL
same,MIC,[8]; [21],0.78 µg/mL
same,MIC,[9]; [27],0.1 µg/mL
same,MIC,[10]; [28],3.13 µg/mL
same,MIC,[11]; [29],3.13 µg/mL
same,MIC,[12]; [30],0.2 µg/mL
same,MIC,[13]; [31],0.39 µg/mL
same,MIC,[14]; [32],1.56 µg/mL
same,MIC,[15]; [33],3.13 µg/mL
same,MIC,[16]; [34],0.1 µg/mL
same,MIC,[17]; [31],0.05 µg/mL
same,MIC,[18]; [35],0.39 µg/mL
same,MIC,"[19]; 20 h, read-out: MIC",1.5 µg/mL
O=C(O)c1cn(-c2ccc(F)cc2)c(C=Cc2cccnc2)cc1=O [drawing 215],LD50,[20],> 200 mg/kg
CN(C)c1ccc(-c2cc(=O)c(C(=O)O)cn2-c2ccc(O)cc2)cc1 [drawing 217],LD50,[20],> 200 mg/kg
O=C(O)c1cn(-c2ccc(F)cc2)c(-c2ccc(NCCO)cc2)cc1=O [drawing 219],LD50,[20],> 200 mg/kg
Cc1cc(O)ccc1-n1cc(C(=O)O)c(=O)cc1C1CCCCC1 [drawing 221],LD50,[20],> 200 mg/kg
